Patent US7838685B2 (priority 2005, dated 2010)
Values joined by “and” are separate entries in the source; they are usually repeats but may differ in a detail not shown here. Equal entries are not always repeated.

Columns and labels:
[1] = Phase transition temperature by differential scanning calorimeter; assay type: physicochemical; settings: for Tc, temperature of the gel to liquid-crystalline phase transition: dispersed in pure water, lipid concentration 1 wt %, DSC 2° C./min, 20 to 80° C.; for Transition temperature: comparison of cationic vesicles, hydrated at 10 mg/mL, extruded through 0.22 μm filter
Experimental: Each of the obtained cationic amino acid type lipids was dispersed in a simple medium of pure water at 60° C. and used as a measurement sample. 60 μL of a sample solution (lipid concentration: 1 wt %) was encapsulated in a silver pan (sealable type), and the phase transition temperature Tc was measured by a differential scanning calorimeter with the temperature elevation rate of 2° C./min. and the measurement temperature of 20 to 80° C.
(§1) Lys-Asp2C16 (5) was hydrated at a lipid concentration of 10 mg/mL and transmitted through a membrane filter having a final pore diameter of 0.22 μm by the extrusion method. Then, the phase transition temperature and the particle size of the assembly were measured. The particle size of the molecular assembly of Lys-Asp2C16 (5) measured by the dynamic light scattering method was 374±178 nm, and the phase transition temperature thereof was 30° C.

[2] = Particle size of the molecular assembly by dynamic light scattering method; assay type: physicochemical; settings: hydrate extruded through 0.22 μm membrane filter
Experimental: (§2) 10 mg of the cationic amino acid type lipid (2), (3) or (4) was hydrated in 2 mL of pure water and stirred at room temperature for 6 hours. Then, the resultant hydrate was transmitted with pressure through a membrane filter (final pore diameter: 0.22 μm) (extrusion method). […] After the transmission, the resultant substance was subjected to ultracentrifugation (33,000 rpm, 30 min.) and re-dispersed in pure water to obtain a molecular assembly including a respective cationic amino acid type lipid.
A hydrate dispersion solution of the cationic amino acid type lipid (2) was extruded and observed with an electron microscope. The particle size of the vesicles was approximately the same as the particle size thereof measured by a dynamic light scattering method (181±83 nm).
as §1

[3] = system: simian kidney-derived cells COS-7; test: Cytotoxicity test, cell survival rate by WST assay, COS-7; assay type: cell-based; settings: COS-7, 10 μg added, 24 hours later
Experimental: (§3) The cationic amino acid type lipid (2) was evaluated in terms of cytotoxicity by adding different amounts thereof to cells. Specifically, 1×10^4 simian kidney-derived cells COS-7 or human fibroblasts CCD-32SK were planted to dishes and cultured for 24 hours in an incubator. To the cultured cells, a cationic liposome diluted with a medium was added so as to be 0.1, 1, 5, and 10 μg/dish. The cells were cultured for another 24 hours. Then, the cells were washed with a medium, and the cell survival rate was calculated by the WST assay. Based on the results, the cytotoxicity was evaluated (n=2). For comparison, the same test was performed using lipofectamine, which is currently in general use as a gene introduction drag. In the figure, (a) represents the results with COS-7, and (b) represents the results with CCD-32SK. Where 10 μg of lipofectamine was added to COS-7, the cell survival rate 24 hours later was 20%.

[4] = system: human fibroblasts CCD-32SK; test: Cytotoxicity test, cell survival rate by WST assay, CCD-32SK; assay type: cell-based; settings: 24 h, 10 μg/dish
Experimental: as §3

[5] = Zeta potential of the molecular assembly including a single type of cationic amino acid type lipid; assay type: physicochemical; settings: molecular assembly 1 mg/mL, extrusion method, 30 mM phosphoric buffer solution pH7.4
Experimental: The zeta potential of a molecular assembly (1 mg/mL) including a single type of cationic amino acid type lipid (2), (3) or (4) prepared by the extrusion method was measured by a zeta potentiometer (Nano-ZS, Malvern) with 30 mM of a phosphoric buffer solution at pH7.4. The zeta potential of each molecular assembly was +37 mV with the cationic amino acid type lipid (2), +45 mV with the cationic amino acid type lipid (3), and lower at +18 mV with the cationic amino acid type lipid (4). From such zeta potentials, it has been clarified that the surface of a molecular assembly formed of a cationic amino acid type lipid is charged positive under physiological conditions.

[6] = Observation of the molecular assembly with transmission electron microscope; assay type: physicochemical; settings: for Form of molecular assembly observed with electron microscope: hydrate dispersion extruded
Experimental: as §2
The thickness of the ribbon is considered to be about 5 nm, which is approximately the same as the thickness of the bilayer.

In the case of CCCCCCCCCCCCCCCCOC(=O)CCC(N)C(=O)OCCCCCCCCCCCCCCCC (centres unmarked) [Compound 1], the “Tc, temperature of the gel to liquid-crystalline phase transition” value (from here on “Tc, temperature of the gel”) [1] is reported as 49.4 °C.
In the case of CCCCCCCCCCCCCCCCOC(=O)CCC(NC(=O)C(N)CCCCN)C(=O)OCCCCCCCCCCCCCCCC (centres unmarked) [Compound 2], the “Particle size (dynamic light scattering method)” value (“Particle size” for short) [2] is reported as 181±83 nm and 188 ± 82 nm, the Transition temperature [1] is reported as 41.2 °C and the “Tc, temperature of the gel” value [1] is reported as 41.2 °C. For the same compound, the Cell survival rate [3] was “not decreased at all”, the Cell survival rate [4] was “about 80%” and the ξ potential [5] was “+37 mV”.
In the case of CCCCCCCCCCCCCCCCOC(=O)CCC(NC(=O)C(N)Cc1c[nH]cn1)C(=O)OCCCCCCCCCCCCCCCC (centres unmarked) [Compound 3], the “Particle size” value [2] is reported as 241±96 nm, the “Tc, temperature of the gel” value [1] is reported as 43.7 °C and the “Diameter of tubular molecular assembly” value ([6]; electron microscope) is reported as “about 20 nm”. For the same compound, the “Wall thickness of the tube” value ([6]; electron microscope) was “about 5 nm”, the “Form of molecular assembly observed with electron microscope” value (“Form of molecular assembly observed” below) ([6]; TEM) was “tubular molecular assembly” and the ξ potential [5] was “+45 mV”.
With CCCCCCCCCCCCCCCCOC(=O)CCC(NC(=O)C(N)CCCNC(=N)N)C(=O)OCCCCCCCCCCCCCCCC (centres unmarked) [Compound 4] the “Particle size” value [2] was 1647±733 nm, the “Tc, temperature of the gel” value [1] was 44.8 °C and the “Form of molecular assembly observed” value ([6]; TEM) was “monolayer vesicle structures”. For the same compound, the ξ potential [5] was “+18 mV”.
With CCCCCCCCCCCCCCCCOC(=O)CC(NC(=O)C(N)CCCCN)C(=O)OCCCCCCCCCCCCCCCC (centres unmarked) [Compound 5, Lys-Asp2C16, reference compound] the “Particle size” value [2] was 374 ± 178 nm, the “Particle size” value ([2]; listed as Lys-Asp2C16 (5)) was 374±178 nm and the Transition temperature [1] was 30.0 °C. For the same compound, the Transition temperature ([1]; listed as Lys-Asp2C16 (5)) was 30 °C, the “Length of the ribbon” value ([6]; TEM) was ≥ 1 μm and the “Thickness of the ribbon” value ([6]; TEM) was “about 5 nm”. For the same compound, the “Width of the ribbon” value ([6]; TEM) was “about 100 nm”, the “Stability of the form of the molecular assembly” value ([6]; after transmission through 0.22 μm membrane filter) was “unstable in the form” and the “Form of molecular assembly observed” value ([6]; TEM) was “ribbon-like molecular assembly”.
